# Data as given in BindingDB's records for patent US20240190872 (University of Illinois, 2024).
# Molecular target: T1, Enoyl-[acyl-carrier-protein] reductase [NADH] (UniProt A0A6F8TJQ1)
# T1 sequence (A0A6F8TJQ1 whole entry): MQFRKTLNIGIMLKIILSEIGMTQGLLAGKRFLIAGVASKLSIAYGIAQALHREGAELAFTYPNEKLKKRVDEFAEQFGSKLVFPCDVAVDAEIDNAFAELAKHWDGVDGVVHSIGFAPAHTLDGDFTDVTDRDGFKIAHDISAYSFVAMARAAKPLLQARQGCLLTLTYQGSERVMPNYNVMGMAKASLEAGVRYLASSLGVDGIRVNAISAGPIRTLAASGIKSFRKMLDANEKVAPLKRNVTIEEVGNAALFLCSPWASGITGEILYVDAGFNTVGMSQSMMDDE
# Test: standard FabI enzyme assay
# Protocol: To probe the effects of varying ring systems and amine placement on FabI target engagement, the apparent inhibition constants (Kiapp) for select compounds were determined using purified FabI. The goal of these studies was two-fold, to comparatively assess fabimycin, Debio-1452-NH3, and Debio-1452, and to also assess differential activity against the E. coli and A. baumannii versions of FabI. FabI from E. coli and A. baumannii were recombinantly expressed and purified, and the ability for each compound to inhibit the activity of these enzymes was evaluated using a standard FabI enzyme assay.
smiles,measurement,value
"Cc1c(CN(C)C(=O)/C=C/c2cnc3c(c2)C[C@@H](N)C(=O)N3)oc2ccccc12 [US20240190872, Compound (+-)-Debio-1452-NH3]",Ki,0.114 µM
